From publication PMC12822132, “Targeting mechanosensitive cannabinoid receptor 1 with isoflavone prodrugs attenuates atherosclerotic endothelial dysfunction” (Journal of Biomedical Science, 2026)

Biological target: T1, cannabinoid receptor 1 (CB1) (Homo sapiens, UniProt P21554)
T1 construct: gene CNR1; human recombinant receptor expressed in Chem-1 cells
Assay: radioligand displacement binding assay
Assay type: cell-based

T1 sequence (P21554 whole entry): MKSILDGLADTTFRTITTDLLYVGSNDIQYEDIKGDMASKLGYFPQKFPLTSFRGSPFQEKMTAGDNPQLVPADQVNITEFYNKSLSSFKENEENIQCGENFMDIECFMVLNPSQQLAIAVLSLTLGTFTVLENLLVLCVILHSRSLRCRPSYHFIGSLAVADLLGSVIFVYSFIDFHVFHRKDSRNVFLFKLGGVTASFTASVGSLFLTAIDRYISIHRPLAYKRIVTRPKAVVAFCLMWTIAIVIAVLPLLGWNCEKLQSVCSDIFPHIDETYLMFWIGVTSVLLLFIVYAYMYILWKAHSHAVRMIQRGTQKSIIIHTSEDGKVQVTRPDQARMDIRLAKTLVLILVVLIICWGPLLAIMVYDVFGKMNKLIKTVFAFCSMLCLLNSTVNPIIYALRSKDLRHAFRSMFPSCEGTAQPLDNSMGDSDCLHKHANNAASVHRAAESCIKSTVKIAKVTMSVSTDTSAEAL

## O=c1c(-c2ccc(O)cc2)coc2cc(O)cc(O)c12 [genistein]
  Ki: 140 nM
